Laboratory results reported in patent US8637679B2, “Process for the isolation of organic compounds useful for the treatment of cancer” (Council of Scientific and Industrial Research, priority 2011, dated 2014).

Assays:
[1] = system: Normal cells [heart, liver, muscle and peripheral blood mononuclear cells (PBMC)]; assay: In vitro testing on normal cells; format: cell-based, rat
Protocol: The cardiomyocytes from 2-day-old neonatal rat were isolated. Briefly, heart was excised and minced in pre warmed (37° C.) Ads buffer (1.2M NaCl, 198 mM HEPES, 54 mM KCl, 8.3 mM MgSO4, 55.4 mM glucose, 95 mM NaH2PO4), digested in typeII Collagenase 0.05% and Pancreatin in 3-successive digestions of 15 minutes each. Supernatant was pooled and cells palleted at 2000 g, 10 minutes. Cells were resuspended and plated in collagen coated T-25 flaks in Medium-199 enriched with 10% Fetal Bovine Serum and 1% antibiotic-antimycotic.
The hepatocytes from 2-day-old neonatal rat were isolated. Briefly, The liver were perfused through the portal vein with a calcium-free solution consisting of 150 mM NaCl, 2.8 mM KCl, 5.5 mM glucose, and 25 mM HEPES (pH 7.6) for 10 min, followed by mincing and digestion in DMEM containing 0.05% collagenase type IV for 30 minutes. The cells were centrifuged (2000 g, 10 minutes) and dispersed in DMEM enriched with 10% fetal Bovine Serum, 1% antibiotic-antimycotic.
The skeletal muscles from 2-day-old neonatal rat were isolated. Briefly, Soleus muscles were dissected minced and digested with 0.2% Type II Collagenase and 0.05% trypsin in Phosphate buffered Saline (PBS) pH 7.4, 0.15 M NaCl. […]
Viability of cancer cell lines after treatment as at the indicated times was determined by MTT assay. […] Absorbance was recorded at 550 nm with 96 well plate readers.

[2] = In vivo bioavailability after oral feeding; parameters: species or system Balb/c mice; details: after oral administration
Protocol: EtOAc extract of Murraya koenigii was orally feeded to normal healthy Balb/c (100 mg/kg body weight) and blood was collected from retro orbital plexus after 30 min interval by glass capillary. Control blood was collected from the mice before the […] of extract. The Institutional Animal Ethical Committee had approved the study. Blood serum was isolated and the serum protein was separated by centrifugation in ice-cold acetone. Supernatant was evaporated to dryness and residual part was dissolved in minimum volume of MeOH and injected into the HPLC column.

AsPC1 = assay: MTT cell viability assay, AsPC1; format: cell-based, human; details: Homo sapiens; AsPC1, 48 hrs
Protocol: Human cervical cancer cell lines (HeLa, ME-180 and SiHa), brain tumor cell lines (U87MG, U373MG, U87MG EGFRvIII, T98G, A172 and LN229), lymphoid leukemia (MOLT-3, MOLT-4, REH and CEMC-7), myloid leukemia (K562), pancreatic cancer (MIAPaCa-2, AsPC-1, Panc-1 and Panc 10.05), lung cancer (A549) and colon cancer (HCT116 and SW480) cell lines from American Type Culture Collection, Manassas, Va., USA were grown in IMDM or RPMI (cell specific) Medium supplemented with 10% fetal bovine serum and 1% antibiotic-antimycotic. Cells were cultured in 37° C. in an atmosphere of 5% CO2.
Viability of cancer cell lines after treatment as at the indicated times was determined by MTT assay. Briefly, 10,000 cells were plated in triplicate in 96 well plates and incubated for 24 and 48 hours in complete media in presence of varying dose of mahanine (0-50 μM). 100 ug MTT was added in each well. Incubate the plate for 1-4 hours at 37° C. and humidified 5% CO2 atmosphere. Absorbance was recorded at 550 nm with 96 well plate readers.

SMILES: CC(C)=CCCC1(C)C=Cc2c(c(C)cc3c2[nH]c2cc(O)ccc23)O1 (stereo not shown) [Mahanine, mahanine]
- inhibition at 50 µM ([1]; PBMC, mahanine at 50 μM, normal rat tissue cells, Vero and WI-38): 15 to 20%
- sensitivity of normal cells ([1]; heart, liver, muscle and PBMC, in vitro): less sensitive
- secondary metabolites in blood (mass spectroscopy) [2]: no production of secondary metabolites
- IC50 (AsPC1): 17.2 ± 0.7 µM
